Test results from PubChem BioAssay AID1919000 (Molecular Pharmacology Branch, DTP, NCI, 2023).
Several values for one entry are separate records, joined by “and”; a condition that tells them apart may be missing. Equal values may be shown once.

Tested on: 653999-131-R-J2-PDC complex spheroids, growth % test/control
Test: Anticancer human tumor 653999-131-R-J2-PDC patient-derived lung adenocarcinoma cell line growth inhibition [AhR]
Settings: for viability, T/C: stronger effect = lower value
How it was run: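 Spheroids combined tumor cells with HUVEC endothelial cells and human MSCs as stroma. AhR antagonists were paired with standard or investigational drugs, each dosed in half-log steps down from near clinical Cmax, or from 10 microM where Cmax was unknown.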

[1] = curve of first compound, second compound 0.1 µM
[2] = curve of first compound, second compound 0.316 µM
[3] = curve of first compound, second compound 1 µM
[4] = curve of first compound, second compound 3.16 µM
[5] = curve of first compound, second compound 10 µM
[6] = second compound 0.1 µM, first compound 0.0316 µM
[7] = second compound 0.1 µM, first compound 0.1 µM
[8] = second compound 0.1 µM, first compound 0.316 µM
[9] = second compound 0.1 µM, first compound 1 µM
[10] = second compound 0.1 µM, first compound 3.16 µM
[11] = second compound 0.1 µM, first compound 10 µM
[12] = second compound 0.316 µM, first compound 0.0316 µM
[13] = second compound 0.316 µM, first compound 0.1 µM
[14] = second compound 0.316 µM, first compound 0.316 µM
[15] = second compound 0.316 µM, first compound 1 µM
[16] = second compound 0.316 µM, first compound 3.16 µM
[17] = second compound 0.316 µM, first compound 10 µM
[18] = second compound 1 µM, first compound 0.0316 µM
[19] = second compound 1 µM, first compound 0.1 µM
[20] = second compound 1 µM, first compound 0.316 µM
[21] = second compound 1 µM, first compound 1 µM
[22] = second compound 1 µM, first compound 3.16 µM
[23] = second compound 1 µM, first compound 10 µM
[24] = second compound 3.16 µM, first compound 0.0316 µM
[25] = second compound 3.16 µM, first compound 0.1 µM
[26] = second compound 3.16 µM, first compound 0.316 µM
[27] = second compound 3.16 µM, first compound 1 µM
[28] = second compound 3.16 µM, first compound 3.16 µM
[29] = second compound 3.16 µM, first compound 10 µM
[30] = second compound 10 µM, first compound 0.0316 µM
[31] = second compound 10 µM, first compound 0.1 µM
[32] = second compound 10 µM, first compound 0.316 µM
[33] = second compound 10 µM, first compound 1 µM
[34] = second compound 10 µM, first compound 3.16 µM
[35] = second compound 10 µM, first compound 10 µM
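Note: spheroids exposed to agents for seven days.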
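Throughout, for viability, T/C: 100% = DMSO vehicle control viability.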

CCN(c1cc(-c2ccc(CN3CCOCC3)cc2)cc(C(=O)NCc2c(C)cc(C)[nH]c2=O)c1C)C1CCOCC1 + Cc1ccccc1N=Nc1ccc(NC(=O)c2ccnn2C)c(C)c1
IC50 [1]: > 3 µM
IC50 [2]: > 3 µM
IC50 [3]: > 3 µM
IC50 [4]: > 3 µM
IC50 [5]: > 3 µM
viability, T/C (second compound 0.1 µM, first compound 0.00949 µM): 92.9%
viability, T/C (second compound 0.1 µM, first compound 0.03 µM): 102%
viability, T/C (second compound 0.1 µM, first compound 0.0949 µM): 97.9%
viability, T/C (second compound 0.1 µM, first compound 0.3 µM): 103%
viability, T/C (second compound 0.1 µM, first compound 0.949 µM): 97.8%
viability, T/C (second compound 0.1 µM, first compound 3 µM): 92.7%
viability, T/C (second compound 0.316 µM, first compound 0.00949 µM): 93.2%
viability, T/C (second compound 0.316 µM, first compound 0.03 µM): 95.6%
viability, T/C (second compound 0.316 µM, first compound 0.0949 µM): 95.5%
viability, T/C (second compound 0.316 µM, first compound 0.3 µM): 95.3%
viability, T/C (second compound 0.316 µM, first compound 0.949 µM): 93.3%
viability, T/C (second compound 0.316 µM, first compound 3 µM): 92.5%
viability, T/C (second compound 1 µM, first compound 0.00949 µM): 91.6%
viability, T/C (second compound 1 µM, first compound 0.03 µM): 95.2%
viability, T/C (second compound 1 µM, first compound 0.0949 µM): 89%
viability, T/C (second compound 1 µM, first compound 0.3 µM): 91.8%
viability, T/C (second compound 1 µM, first compound 0.949 µM): 88.3%
viability, T/C (second compound 1 µM, first compound 3 µM): 93%
viability, T/C (second compound 3.16 µM, first compound 0.00949 µM): 102%
viability, T/C (second compound 3.16 µM, first compound 0.03 µM): 96.1%
viability, T/C (second compound 3.16 µM, first compound 0.0949 µM): 92.8%
viability, T/C (second compound 3.16 µM, first compound 0.3 µM): 89.5%
viability, T/C (second compound 3.16 µM, first compound 0.949 µM): 86.3%
viability, T/C (second compound 3.16 µM, first compound 3 µM): 84%
viability, T/C (second compound 10 µM, first compound 0.00949 µM): 82.1%
viability, T/C (second compound 10 µM, first compound 0.03 µM): 80.8%
viability, T/C (second compound 10 µM, first compound 0.0949 µM): 81.6%
viability, T/C (second compound 10 µM, first compound 0.3 µM): 86.1%
viability, T/C (second compound 10 µM, first compound 0.949 µM): 78.8%
viability, T/C (second compound 10 µM, first compound 3 µM): 79.9%

COc1ccc([C@@H](O)c2cc(-c3ncnc4cc(N5CCOCC5)ccc34)c(F)cc2Cl)nn1 + Cc1cncc(-c2nc(NCCc3c[nH]c4ccccc34)c3ncn(C(C)C)c3n2)c1
IC50 [1]: 8.89 µM
IC50 [2]: > 10 µM
IC50 [3]: > 10 µM
IC50 [4]: > 10 µM
IC50 [5]: > 10 µM
viability, T/C [6]: 97.7%
viability, T/C [7]: 121%
viability, T/C [8]: 103%
viability, T/C [9]: 82.4%
viability, T/C [10]: 72.5%
viability, T/C [11]: 46.7%
viability, T/C [12]: 121%
viability, T/C [13]: 122%
viability, T/C [14]: 102%
viability, T/C [15]: 99.9%
viability, T/C [16]: 73%
viability, T/C [17]: 54.4%
viability, T/C [18]: 116%
viability, T/C [19]: 123%
viability, T/C [20]: 122%
viability, T/C [21]: 101%
viability, T/C [22]: 87.8%
viability, T/C [23]: 61%
viability, T/C [24]: 125%
viability, T/C [25]: 119%
viability, T/C [26]: 138%
viability, T/C [27]: 93%
viability, T/C [28]: 83.3%
viability, T/C [29]: 60.5%
viability, T/C [30]: 55.7%
viability, T/C [31]: 58.9%
viability, T/C [32]: 66.2%
viability, T/C [33]: 65.7%
viability, T/C [34]: 66.3%
viability, T/C [35]: 55.5%

O=C(c1cc(Cc2n[nH]c(=O)c3ccccc23)ccc1F)N1CCN(C(=O)C2CC2)CC1 + CC(CO)NC(=O)c1cc(-c2ccc(Cl)cc2)nn(-c2cnn(C)c2)c1=O
IC50 [1]: > 10 µM
IC50 [2]: > 10 µM
IC50 [3]: > 10 µM
IC50 [4]: > 10 µM
IC50 [5]: > 10 µM
viability, T/C [6]: 82.1%
viability, T/C [7]: 89.5%
viability, T/C [8]: 81.5%
viability, T/C [9]: 83.6%
viability, T/C [10]: 79.9%
viability, T/C [11]: 76.9%
viability, T/C [12]: 91%
viability, T/C [13]: 97.5%
viability, T/C [14]: 96.1%
viability, T/C [15]: 84.2%
viability, T/C [16]: 81.1%
viability, T/C [17]: 78.7%
viability, T/C [18]: 84.7%
viability, T/C [19]: 90.4%
viability, T/C [20]: 89.5%
viability, T/C [21]: 85.6%
viability, T/C [22]: 81.7%
viability, T/C [23]: 79.5%
viability, T/C [24]: 95%
viability, T/C [25]: 86.6%
viability, T/C [26]: 93%
viability, T/C [27]: 85.5%
viability, T/C [28]: 84.6%
viability, T/C [29]: 78.3%
viability, T/C [30]: 88%
viability, T/C [31]: 94.5%
viability, T/C [32]: 82.9%
viability, T/C [33]: 84.5%
viability, T/C [34]: 76.3%
viability, T/C [35]: 75.7%

COc1cc(Nc2ncc3c(n2)-c2ccc(Cl)cc2C(c2c(F)cccc2OC)=NC3)ccc1C(=O)O + Cc1cncc(-c2nc(NCCc3c[nH]c4ccccc34)c3ncn(C(C)C)c3n2)c1
IC50 [1]: > 10 µM
IC50 [2]: > 10 µM
IC50 [3]: > 10 µM
IC50 [4]: > 10 µM
IC50 [5]: > 10 µM
viability, T/C [6]: 82.1%
viability, T/C [7]: 75.4%
viability, T/C [8]: 66.3%
viability, T/C [9]: 63.3%
viability, T/C [10]: 58.3%
viability, T/C [11]: 55.5%
viability, T/C [12]: 78.7%
viability, T/C [13]: 67.7%
viability, T/C [14]: 66.6%
viability, T/C [15]: 63.2%
viability, T/C [16]: 60.6%
viability, T/C [17]: 54.4%
viability, T/C [18]: 91%
viability, T/C [19]: 78.6%
viability, T/C [20]: 80%
viability, T/C [21]: 68.2%
viability, T/C [22]: 61.9%
viability, T/C [23]: 57.8%
viability, T/C [24]: 96.7%
viability, T/C [25]: 86.4%
viability, T/C [26]: 78.6%
viability, T/C [27]: 73.4%
viability, T/C [28]: 73.1%
viability, T/C [29]: 64.7%
viability, T/C [30]: 65.5%
viability, T/C [31]: 49.9%
viability, T/C [32]: 57.9%
viability, T/C [33]: 49.9%
viability, T/C [34]: 55.5%
viability, T/C [35]: 64.4%

NS(=O)(=O)OCC1CC(n2ccc3c(NC4CCc5ccccc54)ncnc32)CC1O (configuration not stated) + Cc1ccccc1N=Nc1ccc(NC(=O)c2ccnn2C)c(C)c1
IC50 [1]: > 10 µM
IC50 [2]: > 10 µM
IC50 [3]: > 10 µM
IC50 [4]: > 10 µM
IC50 [5]: > 10 µM
viability, T/C [6]: 111%
viability, T/C [7]: 120%
viability, T/C [8]: 118%
viability, T/C [9]: 124%
viability, T/C [10]: 88.9%
viability, T/C [11]: 64.7%
viability, T/C [12]: 114%
viability, T/C [13]: 105%
viability, T/C [14]: 123%
viability, T/C [15]: 129%
viability, T/C [16]: 72.7%
viability, T/C [17]: 61.3%
viability, T/C [18]: 115%
viability, T/C [19]: 119%
viability, T/C [20]: 124%
viability, T/C [21]: 124%
viability, T/C [22]: 63.3%
viability, T/C [23]: 61.4%
viability, T/C [24]: 125%
viability, T/C [25]: 109%
viability, T/C [26]: 142%
viability, T/C [27]: 93.4%
viability, T/C [28]: 61.8%
viability, T/C [29]: 62.3%
viability, T/C [30]: 129%
viability, T/C [31]: 118%
viability, T/C [32]: 115%
viability, T/C [33]: 63.7%
viability, T/C [34]: 56.7%
viability, T/C [35]: 60%

O=C(C=Cc1cccc(S(=O)(=O)Nc2ccccc2)c1)NO
viability, T/C (compound 0.0316 µM): 91.5% and 94.1% and 91.6%
viability, T/C (compound 0.1 µM): 92.4% and 95.9% and 101%
viability, T/C (compound 0.316 µM): 82.2% and 91.9% and 96.7%
viability, T/C (compound 1 µM): 77% and 86.9% and 80.2%
viability, T/C (compound 3.16 µM): 52.3% and 62.5% and 55.9%
viability, T/C (compound 10 µM): 14.8% and 11.4% and 7.09%
IC50 (curve of compound): 3.45 µM and 4.2 µM and 3.56 µM
